According to PubChem BioAssay (NCI):
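A five-concentration, 48-hour dose response in 96-well plates underlies each endpoint, interpolated linearly between surrounding concentrations. At the TGI there is no net growth.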

Legend:
Assay in all cases: NCI-60 cell line screen, 48 h
[1] = test system: KM12 colon
[2] = test system: EKVX NSCLC
[3] = test system: HCT-116 colon
[4] = test system: RXF 393 renal
[5] = test system: HCC-2998 colon
[6] = test system: U251 CNS
[7] = test system: MDA-N
[8] = test system: PC-3 prostate
[9] = test system: UO-31 renal
[10] = test system: SK-OV-3 ovarian
[11] = test system: SNB-19 CNS
[12] = test system: HT29 colon
[13] = test system: SW-620 colon
[14] = test system: SF-295 CNS
[15] = test system: A498 renal
[16] = test system: T-47D breast
[17] = test system: SF-539 CNS
[18] = test system: CAKI-1 renal
[19] = test system: OVCAR-3 ovarian
[20] = test system: HS 578T breast
[21] = test system: MDA-MB-435
[22] = test system: A549 NSCLC
[23] = test system: SF-268 CNS
[24] = test system: MDA-MB-231 breast
[25] = test system: CCRF-CEM leukemia
[26] = test system: MALME-3M melanoma
[27] = test system: NCI-H460 lung
[28] = test system: NCI-H522 lung
[29] = test system: SN12C renal
[30] = test system: HCT-15 colon
[31] = test system: OVCAR-8 ovarian
[32] = test system: SK-MEL-5 melanoma
[33] = test system: MCF7 breast
[34] = test system: BT-549 breast
[35] = test system: TK-10 renal
[36] = test system: HOP-62 NSCLC
[37] = test system: DU-145 prostate
[38] = test system: SNB-75 CNS
[39] = test system: RPMI-8226 leukemia
[40] = test system: UACC-62 melanoma
[41] = test system: NCI/ADR-RES ovarian
[42] = test system: 786-0 renal
[43] = test system: OVCAR-4 ovarian
[44] = test system: ACHN renal
[45] = test system: NCI-H226 lung
[46] = test system: SK-MEL-2 melanoma
[47] = test system: MOLT-4 leukemia
[48] = test system: SK-MEL-28 melanoma
[49] = test system: HL-60(TB) leukemia
[50] = test system: HOP-92 NSCLC
[51] = test system: SR leukemia
[52] = test system: M14 melanoma
[53] = test system: NCI-H23 lung
[54] = test system: LOX IMVI melanoma
[55] = test system: UACC-257 melanoma
[56] = test system: OVCAR-5 ovarian
[57] = test system: COLO 205 colon
[58] = test system: K-562 leukemia
[59] = test system: IGROV1 ovarian

Measured: TGI

CC(C)C1OCC(CO)CO1 (stereo not given)
> 100 µM: [1] | [2] | [3] | [4] | [5] | [6] | [7] | [8] | [9] | [10] | [11] | [12] | [13] | [14] | [15] | [16] | [17] | [18] | [19] | [20] | [21] | [22] | [23] | [24] | [25] | [26] | [27] | [28] | [29] | [30] | [31] | [32] | [33] | [34] | [35] | [36] | [37] | [38] | [39] | [40] | [41] | [42] | [43] | [44] | [45] | [46] | [47] | [48] | [49] | [50] | [51] | [52] | [53] | [54] | [55] | [56] | [57]

O=C(O)[C@@H]1C[C@@H](O)CN1
> 100 µM: [1] | [2] | [3] | [4] | [5] | [6] | [7] | [8] | [9] | [10] | [11] | [12] | [13] | [14] | [15] | [16] | [17] | [18] | [19] | [20] | [21] | [22] | [58] | [23] | [24] | [25] | [26] | [27] | [29] | [30] | [31] | [32] | [33] | [34] | [35] | [36] | [37] | [38] | [39] | [40] | [41] | [42] | [43] | [44] | [45] | [46] | [47] | [48] | [49] | [50] | [51] | [52] | [53] | [54] | [59] | [55] | [56] | [57]
